In US20150344457A1, “METHODS OF INHIBITING PRMT5” (EPIZYME, INC., priority 2012, published 2015) one finds IC50 data, which are given here for three molecules.

This assay deals with T1, PRMT5/MEP50 (Homo sapiens, UniProt O14744).
T1 construct: Expressed full-length human Flag-PRMT5/6His-MeP50 protein complex was purified; made in house; host or cells: Spodoptera frugiperda (SF9) insect cells, baculovirus (pDEST8)
As to the kind of experiment: PRMT5 Biochemical Assay (PRMT5/MEP50 enzyme assay on peptide substrate, 3H-SAM Flashplate). As to conditions: Table A-2; PRMT5/MEP50 4 nM, 3H-SAM 75 nM, peptide 40 nM; read-out: Biochemical IC50.

T1 sequence (O14744 with tags, fused parts or gaps): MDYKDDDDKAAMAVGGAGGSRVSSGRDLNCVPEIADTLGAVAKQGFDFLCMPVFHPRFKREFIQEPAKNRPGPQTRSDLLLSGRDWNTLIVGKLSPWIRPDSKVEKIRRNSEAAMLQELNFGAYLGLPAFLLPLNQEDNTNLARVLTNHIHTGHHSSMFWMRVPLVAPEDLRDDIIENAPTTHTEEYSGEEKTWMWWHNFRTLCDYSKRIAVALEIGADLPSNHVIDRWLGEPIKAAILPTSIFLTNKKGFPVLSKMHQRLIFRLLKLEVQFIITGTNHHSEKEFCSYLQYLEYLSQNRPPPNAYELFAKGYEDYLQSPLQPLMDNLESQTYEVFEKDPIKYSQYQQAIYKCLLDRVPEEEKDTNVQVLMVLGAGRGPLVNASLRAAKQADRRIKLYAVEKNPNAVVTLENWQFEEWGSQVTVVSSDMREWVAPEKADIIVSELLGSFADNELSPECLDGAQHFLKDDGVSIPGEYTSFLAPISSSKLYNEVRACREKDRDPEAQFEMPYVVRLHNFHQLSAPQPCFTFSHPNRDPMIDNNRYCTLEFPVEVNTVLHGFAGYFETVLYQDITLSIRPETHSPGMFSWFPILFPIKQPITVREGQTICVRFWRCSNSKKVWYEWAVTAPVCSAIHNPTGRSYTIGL
T1 sequence (Q9BQA1 with tags, fused parts or gaps partner limits assumed): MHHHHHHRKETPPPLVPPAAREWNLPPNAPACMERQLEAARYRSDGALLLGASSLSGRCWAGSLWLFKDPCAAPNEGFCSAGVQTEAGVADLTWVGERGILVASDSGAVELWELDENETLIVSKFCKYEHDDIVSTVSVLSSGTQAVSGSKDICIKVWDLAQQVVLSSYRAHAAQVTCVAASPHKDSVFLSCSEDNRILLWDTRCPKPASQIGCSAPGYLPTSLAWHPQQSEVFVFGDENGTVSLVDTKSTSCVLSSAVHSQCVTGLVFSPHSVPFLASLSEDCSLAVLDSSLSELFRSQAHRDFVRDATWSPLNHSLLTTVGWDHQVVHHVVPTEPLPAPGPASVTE

As a reminder, the IC50 is the concentration that inhibits the measured activity by half. In the case of `COc1cccc(OCC(=O)NCC(O)CN2CCc3ccccc3C2)c1` (stereo not drawn) [Compound A20], the IC50 is below 100 nM.
On to `Cc1cccc(OCC(=O)NCC(O)CN2CCc3ccccc3C2)c1` (stereo not drawn) [Compound A26], for which the IC50 is below 100 nM.
Consider `O=C(COc1ccccc1-c1cc[nH]n1)NC[C@H](O)CN1CCc2ccccc2C1` [Compound A68], for which the IC50 is below 100 nM.
